Laboratory results taken from US10588935B2, “FC receptor (FcRn) binding peptides and uses thereof” (THE BRIGHAM AND WOMEN'S HOSPITAL, INC., priority 2013, dated 2020).
Read-outs that look alike come from different tables or passages of the source. Bridge positions count the residues as written; N and C are the ends. Peptide text beside a SMILES is read from it.

Molecular target: T1, soluble human FcRn (Homo sapiens, UniProt P55899)
T1 construct: Soluble human FcRn was expressed and purified by Biogen-Idec as previously described (29)
Experiment: SPR (Biacore) affinity of peptides for immobilized soluble human FcRn
Assay type: binding
Procedure: SPR analyses were conducted using a Biacore 3000 or T100 instrument. Research-grade CM5 sensor chips and all coupling reagents for immobilization were purchased from Biacore. All proteins were cross-linked to the dextran surface of a CM5 sensor chip by standard amine coupling chemistry as recommended by Biacore. […] Binding experiments were performed at pH 6.0 or 7.4 using 50 mM phosphate, 100 mM sodium chloride and 0.01% surfactant P20. […] Bound albumin protein was then allowed to dissociate from the chip for 5 minutes with running buffer. Any remaining albumin was removed from the chip with a 60 second injection (2 cycles) of pH 8.0 Tris-HCl regeneration buffer (1 M Tris pH 8.0) at 25 μL/min flow rate. The binding responses recorded near the end of the association phase were plotted as a function of concentration. Equilibrium dissociation constants (KD), were derived from sensorgrams using the 1:1 binding model of BIAevaluation software 4.1.

[1] = Table 1, pH 6, shFcRn immobilized on the sensor chip, steady state fit, read-out: Kd, pH 6** Biacore
[2] = Table 2, pH 6, immobilized shFcRn, data fit steady state or 2 site, read-out: Kd, pH 6** Biacore
[3] = Table 2, pH 7.4, data only 100 uM, therefore Kd may be higher, read-out: Kd, pH 7.4 Biacore

Structure (SMILES) | Kd Ratio 7.4/6.0 (Table 2) | Kd [1] [µM] | Kd [2] [µM] | Kd [3] [µM]
CSCC[C@H](NC(=O)[C@H](Cc1ccc(O)cc1)NC(C)=O)C(=O)N[C@H](C(=O)N[C@H]1CSSC[C@@H](C(=O)N[C@@H](CCC(=O)O)C(=O)N[C@@H](Cc2ccc(O)cc2)C(=O)N[C@H](C(N)=O)C(C)C)NC(=O)[C@H](CO)NC(=O)[C@H](Cc2ccccc2)NC(=O)CNC(=O)[C@H](C)NC(=O)[C@H](CC(=O)O)NC(=O)[C@H](Cc2c[nH]c3ccccc23)NC(=O)[C@H](CCCCN)NC1=O)[C@@H](C)O [SYN1150] (Ac-YMTCKWDAGFSCEYV-NH2; disulfide 4-12 (inferred)) | 2.2 | – | – | –
CC(=O)N[C@@H](CCCNC(=N)N)C(=O)N[C@@H](Cc1ccc(O)cc1)C(=O)N[C@@H](Cc1ccccc1)C(=O)N[C@H]1CSSC(C)(C)[C@@H](C(=O)N[C@@H](CCC(=O)O)C(=O)N[C@@H](CCC(=O)O)C(=O)N[C@H](C(N)=O)C(C)C)NC(=O)[C@H](Cc2c[nH]c3ccccc23)NC(=O)CNC(=O)[C@H](Cc2c[nH]cn2)NC(=O)[C@H](CCCCN)NC(=O)[C@H](Cc2c[nH]c3ccccc23)NC(=O)[C@H](CCCCN)NC(=O)[C@H]([C@@H](C)O)NC1=O [SYN1556] | – | > 100 | – | –
CC(=O)N[C@@H](CCCNC(=N)N)C(=O)N[C@@H](Cc1ccc(O)cc1)C(=O)N[C@@H](Cc1ccccc1)C(=O)N[C@@H]1C(=O)N[C@@H]([C@@H](C)O)C(=O)N[C@@H](CCCCN)C(=O)N[C@@H](Cc2c[nH]c3ccccc23)C(=O)N[C@@H](CCCCN)C(=O)N[C@@H](Cc2c[nH]cn2)C(=O)NCC(=O)N[C@@H](Cc2c[nH]c3ccccc23)C(=O)N[C@H](C(=O)N[C@@H](CCC(=O)O)C(=O)N[C@@H](CCC(=O)O)C(=O)N[C@H](C(N)=O)C(C)C)CSSC1(C)C [SYN1555] | – | > 100 | – | –
CC(=O)N[C@@H](CCCNC(=N)N)C(=O)N[C@@H](Cc1ccc(O)cc1)C(=O)N[C@@H](Cc1ccccc1)C(=O)N[C@H]1CSSC[C@@H](C(=O)N[C@@H](CCC(=O)O)C(=O)N[C@@H](CCC(=O)O)C(=O)N[C@H](C(N)=O)C(C)C)NC(=O)[C@H](Cc2c[nH]c3ccccc23)NC(=O)CNC(=O)[C@H](Cc2c[nH]cn2)NC(=O)[C@H](CCCCN)NC(=O)[C@H](Cc2c[nH]c3ccccc23)NC(=O)[C@H](CCCCN)NC(=O)[C@H](C)NC1=O [SYN1545] (Ac-RYFCAKWKHGWCEEV-NH2; disulfide 4-12 (inferred)) | – | 9.3 | – | –
CC(=O)N[C@@H](C)C(=O)NCC(=O)N[C@@H](CCCNC(=N)N)C(=O)N[C@@H](Cc1ccc(O)cc1)C(=O)N[C@@H](Cc1ccccc1)C(=O)N[C@H]1CSSC[C@@H](C(=O)N[C@@H](CCC(=O)O)C(=O)N[C@@H](CCC(=O)O)C(=O)N[C@H](C(=O)NCC(=O)N[C@H](C(=O)NCC(=O)NCC(N)=O)[C@@H](C)O)C(C)C)NC(=O)[C@H](Cc2c[nH]c3ccccc23)NC(=O)CNC(=O)[C@H](Cc2c[nH]cn2)NC(=O)[C@H](CCCCN)NC(=O)[C@H](Cc2c[nH]c3ccccc23)NC(=O)[C@H](CCCCN)NC(=O)[C@H]([C@@H](C)O)NC1=O [SYN1708] | – | 0.57 | – | –
CC(=O)N[C@@H](CCCNC(=N)N)C(=O)N[C@@H](Cc1ccc(O)cc1)C(=O)N[C@@H](Cc1ccccc1)C(=O)N[C@@H]1C(=O)N[C@@H]([C@@H](C)O)C(=O)N[C@@H](CCCCN)C(=O)N[C@@H](Cc2c[nH]c3ccccc23)C(=O)N[C@@H](CCCCN)C(=O)N[C@@H](Cc2c[nH]cn2)C(=O)NCC(=O)N[C@@H](Cc2c[nH]c3ccccc23)C(=O)N[C@H](C(=O)N[C@@H](CCC(=O)O)C(=O)N[C@@H](CCC(=O)O)C(=O)N[C@H](C(N)=O)C(C)C)C(C)(C)SSC1(C)C [SYN1557, Ac-RYF-Pen-TKWKHGW-Pen-EEV-CONH2] | – | > 100 | – | –
CC(=O)N[C@@H](CCCNC(=N)N)C(=O)N[C@@H](Cc1ccc(O)cc1)C(=O)N[C@@H](Cc1ccccc1)C(=O)N[C@H]1CSSC[C@@H](C(=O)N[C@@H](CCC(=O)O)C(=O)N[C@@H](CCC(=O)O)C(=O)N[C@@H](C)C(N)=O)NC(=O)[C@H](Cc2c[nH]c3ccccc23)NC(=O)CNC(=O)[C@H](Cc2c[nH]cn2)NC(=O)[C@H](CCCCN)NC(=O)[C@H](Cc2c[nH]c3ccccc23)NC(=O)[C@H](CCCCN)NC(=O)[C@H]([C@@H](C)O)NC1=O [SYN1554] (Ac-RYFCTKWKHGWCEEA-NH2; disulfide 4-12) | – | > 100 | – | –
CSCC[C@H](NC(=O)[C@H](Cc1ccc(O)cc1)NC(C)=O)C(=O)N[C@H](C(=O)N[C@H]1CSSC[C@@H](C(=O)N[C@@H](CCC(=O)O)C(=O)N[C@@H](C)C(=O)N[C@H](C(N)=O)C(C)C)NC(=O)[C@H](CO)NC(=O)[C@H](Cc2ccccc2)NC(=O)CNC(=O)[C@H](CC(=O)O)NC(=O)[C@H](CC(=O)O)NC(=O)[C@H](Cc2c[nH]c3ccccc23)NC(=O)[C@H](CCCCN)NC1=O)[C@@H](C)O [SYN1155] (Ac-YMTCKWDDGFSCEAV-NH2; disulfide 4-12 (inferred)) | 9.8 | – | – | 17.3
CSCC[C@H](NC(=O)[C@H](Cc1ccc(O)cc1)NC(C)=O)C(=O)N[C@H](C(=O)N[C@H]1CSSC[C@@H](C(=O)N[C@@H](CCC(=O)O)C(=O)N[C@@H](Cc2ccc(O)cc2)C(=O)N[C@H](C(N)=O)C(C)C)NC(=O)[C@H](CO)NC(=O)[C@H](Cc2ccccc2)NC(=O)CNC(=O)[C@H](CC(=O)O)NC(=O)[C@H](C)NC(=O)[C@H](Cc2c[nH]c3ccccc23)NC(=O)[C@H](CCCCN)NC1=O)[C@@H](C)O [SYN1149] (Ac-YMTCKWADGFSCEYV-NH2; disulfide 4-12 (inferred)) | 7.8 | – | – | 12
CC(=O)N[C@@H](CCCNC(=N)N)C(=O)N[C@@H](Cc1ccc(O)cc1)C(=O)N[C@@H](Cc1ccccc1)C(=O)N[C@H]1CSSC[C@@H](C(=O)N[C@@H](CCC(=O)O)C(=O)N[C@@H](CCC(=O)O)C(=O)N[C@H](C(N)=O)C(C)C)NC(=O)[C@H](Cc2c[nH]c3ccccc23)NC(=O)CNC(=O)[C@H](Cc2c[nH]cn2)NC(=O)[C@H](C)NC(=O)[C@H](Cc2c[nH]c3ccccc23)NC(=O)[C@H](CCCCN)NC(=O)[C@H]([C@@H](C)O)NC1=O [SYN1548] (Ac-RYFCTKWAHGWCEEV-NH2; disulfide 4-12 (inferred)) | – | 9.3 | – | –

More lines, now with the values ahead:

Kd Ratio 7.4/6.0 (Table 2) | Kd [1] [µM] | Kd [2] [µM] | Kd [3] [µM] | Structure (SMILES)
23.3 | – | – | – | CSCC[C@H](NC(=O)[C@H](C)NC(C)=O)C(=O)N[C@H](C(=O)N[C@H]1CSSC[C@@H](C(=O)N[C@@H](CCC(=O)O)C(=O)N[C@@H](Cc2ccc(O)cc2)C(=O)N[C@H](C(N)=O)C(C)C)NC(=O)[C@H](CO)NC(=O)[C@H](Cc2ccccc2)NC(=O)CNC(=O)[C@H](CC(=O)O)NC(=O)[C@H](CC(=O)O)NC(=O)[C@H](Cc2c[nH]c3ccccc23)NC(=O)[C@H](CCCCN)NC1=O)[C@@H](C)O [SYN1144] (Ac-AMTCKWDDGFSCEYV-NH2; disulfide 4-12 (inferred))
61 | – | 0.031 | 1.1 | CSCC[C@H](NC(=O)[C@@H](NC(C)=O)C(C)C)C(=O)N[C@@H](CCCCN)C(=O)N[C@H]1CSSC[C@@H](C(=O)N[C@@H](CCCNC(=N)N)C(=O)N[C@@H](C)C(=O)N[C@@H](Cc2ccccc2)C(N)=O)NC(=O)[C@H](CC(C)C)NC(=O)[C@H](Cc2ccccc2)NC(=O)[C@H](CCC(=O)O)NC(=O)[C@H](CCC(=O)O)NC(=O)[C@H](CC(=O)O)NC(=O)[C@H](Cc2c[nH]c3ccccc23)NC(=O)[C@H](Cc2c[nH]c3ccccc23)NC1=O [SYN1536] (Ac-VMKCWWDEEFLCRAF-NH2; disulfide 4-12 (inferred))
25 | – | 1.5 ± 0.22 | – | CSCC[C@H](NC(=O)[C@H](Cc1ccc(O)cc1)NC(C)=O)C(=O)N[C@H](C(=O)N[C@H]1CSSC[C@@H](C(=O)N[C@@H](CCC(=O)O)C(=O)N[C@@H](Cc2ccc(O)cc2)C(=O)N[C@H](C(N)=O)C(C)C)NC(=O)[C@H](CO)NC(=O)[C@H](Cc2ccccc2)NC(=O)[C@H](C)NC(=O)[C@H](CC(=O)O)NC(=O)[C@H](CC(=O)O)NC(=O)[C@H](Cc2c[nH]c3ccccc23)NC(=O)[C@H](CCCCN)NC1=O)[C@@H](C)O [SYN1151] (Ac-YMTCKWDDAFSCEYV-NH2; disulfide 4-12 (inferred))
73 | – | 0.3 | 22 | CSCC[C@H](NC(=O)[C@@H](NC(C)=O)C(C)C)C(=O)N[C@@H](Cc1c[nH]cn1)C(=O)N[C@H]1CSSC[C@@H](C(=O)N[C@@H](CC(=O)O)C(=O)N[C@@H](CCC(N)=O)C(=O)N[C@H](C(N)=O)C(C)C)NC(=O)[C@H](CCCCN)NC(=O)[C@H](Cc2ccccc2)NC(=O)[C@H](CCC(=O)O)NC(=O)[C@H](CCC(=O)O)NC(=O)[C@H](CC(=O)O)NC(=O)[C@H](Cc2c[nH]c3ccccc23)NC(=O)[C@H](Cc2ccccc2)NC1=O [SYN1260] (Ac-VMHCFWDEEFKCDQV-NH2; disulfide 4-12 (inferred))
65 | – | – | – | CSCC[C@H](NC(=O)[C@@H](NC(C)=O)C(C)C)C(=O)N[C@@H](Cc1c[nH]cn1)C(=O)N[C@H]1CSSC[C@@H](C(=O)N[C@@H](CCC(=O)O)C(=O)N[C@@H](CCC(N)=O)C(=O)NCC(N)=O)NC(=O)[C@H](CCCCN)NC(=O)[C@H](Cc2ccccc2)NC(=O)[C@H](CCC(=O)O)NC(=O)[C@H](CCC(=O)O)NC(=O)[C@H](CC(=O)O)NC(=O)[C@H](Cc2c[nH]c3ccccc23)NC(=O)[C@H](Cc2ccccc2)NC1=O [SYN1258] (Ac-VMHCFWDEEFKCEQG-NH2; disulfide 4-12 (inferred))
80 | – | – | – | CSCC[C@@H]1NC(=O)[C@H](CCC(=O)O)NC(=O)[C@H](CCC(=O)O)NC(=O)[C@H](CC(=O)O)NC(=O)[C@H](Cc2c[nH]c3ccccc23)NC(=O)[C@H](Cc2c[nH]c3ccccc23)NC(=O)[C@@H](NC(=O)[C@H](CCCCN)NC(=O)[C@H](CCSC)NC(=O)[C@@H](NC(C)=O)C(C)C)CSSC[C@@H](C(=O)N[C@@H](CCCNC(=N)N)C(=O)N[C@@H](C)C(=O)N[C@H](C(N)=O)C(C)C)NC(=O)[C@H](CC(C)C)NC1=O [SYN1540 A] (Ac-VMKCWWDEEMLCRAV-NH2; disulfide 4-12)
